In US11039613B2, “Germination promoters” (SYNGENTA PARTICIPATIONS AG, priority 2017, dated 2021):
Like-named read-outs stand apart in the source and are kept apart here.

What was measured:
[1] = tested on: NK Falkone corn seeds; test: Corn seed germination, cold stress (15° C.); type: in vivo; conditions: for T50 (% vs control): control T50 = 110 hours; for Slope compared with closest prior art compound P2 / T50 compared with closest prior art compound P2: vs P2
Method: The effect of compounds of Formula (II-1 and III-1) on the germination of NK Falkone corn seeds under salt and cold stress was evaluated as follows.
(§1) NK Falkone corn seeds (harvested in 2015) were sorted by size using a sieve to keep away round seeds.
(§2) The corn seeds were placed in 24 well plates (each plate was considered as one experimental unit or replicate). Germination was initiated by the addition of 200 μl of distilled water containing 0.5% DMSO per well. 8 replicates (i.e. 8 plates) were used for each treatment characterization. Plates were sealed using seal foil (Polyolefin Art. Nr. 900320) from HJ-BIOANALYTIK. All plates were placed in two carrousels in a climatic chamber at 15° C. The experiment was laid out in a completely randomized design in climatic chamber with 60% Relative Humidity.
(§3) Germination was followed over time by taking photographs at different time points. Image analysis was performed automatically with a macro which was developed using the Image J software. A dynamic analysis of germination was carried out by fitting a logistic curve. Three parameters were calculated from the logistic curve: the T50; the slope and the plateau. All three parameters have a high agronomical relevance and are key requirements to ensure a good early crop-establishment. The T50 and slope for a selection of compounds are outlined in Table 2 below. All the values are expressed as percentages compared to an untreated control. All the three parameters are calculated considering 8 replicates and the kinetic parameters are separately determined for each germination curve. Data in bold indicate germination enhancing statistically significant differences between treated seeds and untreated control (p<0.05). T50 corresponds to the time needed for half of the seed population to germinate. Higher negative %-values indicate faster germination. Slope indicates how synchronous the germination of the seed population is. Positive values indicate steeper curve. The steeper the curve, the better and more uniform the germination is.

[2] = tested on: NK Falkone corn seeds; test: Corn seed germination, salt (NaCl, 100 mM) and cold stresses (15° C.); type: in vivo; conditions: cold 15° C. and salt 100 mM NaCl
Method: as §1, §2, §3
(§4) The effect of compounds of Formula (III-1 and P1) on the germination of NK Falkone corn seeds under salt and cold stress was evaluated as follows.
The experimental protocol was the same as in Example B1, except that germination was initiated by the addition of 200 μl of distilled water containing 0.5% DMSO and 100 mM NaCl per well.

[3] = tested on: NK Falkone corn seeds; test: Corn seed germination, salt (NaCl, 100 mM) stress and optimal temperature (23° C.); type: in vivo; conditions: salt (NaCl) stress
Method: as §1
as §2, with “Germination was initiated by the addition of 200 μl of distilled water containing 0.5% DMSO per well.” left out
as §3
The experimental protocol was the same as in Example B1, except that the plates were placed in a climatic chamber at 23° C.

[4] = tested on: NK Falkone corn seeds; test: Corn seed germination, osmotic stress (PEG 2%) and cold stress (15° C.); type: in vivo; conditions: osmotic (PEG 2%) and cold 15° C.
Method: as §1, §2, §3, §4
The experimental protocol was the same as in Example B1, except that germination was initiated by the addition of 200 μl of distilled water containing 0.5% DMSO and 2% PEG per well.

[5] = Hydrolytic stability; type: physicochemical; conditions: for half-life: aqueous buffer/acetonitrile solution, pH 9, pH 9, buffer/acetonitrile; for half-life / % remaining, less polar isomer / % remaining, more polar isomer: 40° C.
Method: Prior to conducting the individual hydrolytic stability assays, stock solutions containing 1000 ppm of each test compound (i.e. compounds III-1 and P1) were prepared in acetonitrile.
The reagents used in the assays were prepared as follows. A 20 mM buffer solution was prepared from a stock solution of 20 mM mixed acetate, borate and phosphate buffer and the pH adjusted to 7 or 9 as required.
Test solutions were prepared in LC vials for each test compound in the following manner: Hydrolytic Stability: Buffer (750 μL)+acetonitrile (250 μL)+compound stock solution (2 to 40 μL).
The buffers were initially dispensed into separate glass LC vials, placed into an autosampler complete with thermostat set at 40° C. and allowed to equilibrate for 30 minutes prior to starting the individual assays.
Analysis was carried out on Waters LCMS systems under reverse phase conditions using 10 cm C18 columns and acetonitrile (HPLC grade) acidified water (0.2% formic acid) mobile phase at a flow rate of 1 ml min-1. Peak detection was at the optimum wavelength (230-250 nm) and peak areas were used for quantification
Reactions were initiated by addition of the compound solution and monitored through a series of repeat injections made directly from the vial into the HPLC system at regular time intervals. Initial and subsequent measurements of peak area attributable to the test compound were used to fit exponential half-lives and calculate first-order rate constants.
Consequently, the percentage of compound remaining was recorded at the last assessment time.

[6] = less polar isomer, read-out: Hydrolytic stability pH9 (t½), less polar isomer (converted)
[7] = more polar isomer, read-out: Hydrolytic stability pH9 (t½), more polar isomer

CC1=CC(O/C=C2/C(=O)NC3c4ccccc4CC23)N(c2cc(C(F)(F)F)cc(C(F)(F)F)c2)C1=O (stereo not shown) [Compound P1, reference compound]
Slope (% vs control) ([1]; Rate 0.4 μM): 18.4 % vs control | T50 (% vs control) ([1]; Rate 0.4 μM): −2.2 % vs control | Slope (% vs control) ([1]; Rate 2 μM): 7.36 % vs control | T50 (% vs control) ([1]; Rate 2 μM): −1.4 % vs control | Slope (% vs control) ([1]; Rate 10 μM): 63.91 % vs control | T50 (% vs control) ([1]; Rate 10 μM): −8.95 % vs control | Slope (% vs control) ([1]; Rate 50 μM): 144.52 % vs control | T50 (% vs control) ([1]; Rate 50 μM): −11.7 % vs control | Slope (% vs control) ([2]; Rate 0.4 μM): 14.2 % vs control | T50 (% vs control) ([2]; Rate 0.4 μM): 0.5 % vs control | Slope (% vs control) ([2]; Rate 2 μM): 11.7 % vs control | T50 (% vs control) ([2]; Rate 2 μM): −0.3 % vs control | Slope (% vs control) ([2]; Rate 10 μM): 83.9 % vs control | T50 (% vs control) ([2]; Rate 10 μM): −10.7 % vs control | Slope (% vs control) ([2]; Rate 50 μM): 61.2 % vs control | T50 (% vs control) ([2]; Rate 50 μM): −5.1 % vs control | Slope (% vs control) ([3]; Rate 0.4 μM): 4.1 % vs control | T50 (% vs control) ([3]; Rate 0.4 μM): −0.4 % vs control | Slope (% vs control) ([3]; Rate 2 μM): 2.8 % vs control | T50 (% vs control) ([3]; Rate 2 μM): 3.3 % vs control | Slope (% vs control) ([3]; Rate 10 μM): 70.8 % vs control | T50 (% vs control) ([3]; Rate 10 μM): −10.2 % vs control | Slope (% vs control) ([3]; Rate 50 μM): 111.4 % vs control | T50 (% vs control) ([3]; Rate 50 μM): −15.2 % vs control | Slope (% vs control) ([4]; Rate 0.4 μM): 2.7 % vs control | T50 (% vs control) ([4]; Rate 0.4 μM): −0.8 % vs control | Slope (% vs control) ([4]; Rate 2 μM): 3.2 % vs control | T50 (% vs control) ([4]; Rate 2 μM): −0.8 % vs control | Slope (% vs control) ([4]; Rate 10 μM): 20.9 % vs control | T50 (% vs control) ([4]; Rate 10 μM): −2.8 % vs control | Slope (% vs control) ([4]; Rate 50 μM): 1.3 % vs control | T50 (% vs control) ([4]; Rate 50 μM): −4.3 % vs control | half-life [5, 6]: 59 h | half-life [5, 7]: > 59 h | % remaining, less polar isomer ([5]; pH 9, at 17.3 hours, less polar isomer): 85.5% remaining at 17.3 hours | % remaining, more polar isomer ([5]; pH 9, at 17.3 hours, more polar isomer): 97.9% remaining at 17.3 hours

CC1=CC(O/C=C2/C(=O)OC3c4ccccc4CC23)N(c2cc(C(F)(F)F)cc(C(F)(F)F)c2)C1=O (stereo not shown) [Compound P2, reference compound]
Slope (% vs control) ([1]; Rate 2 μM): −19.5 % vs control | T50 (% vs control) ([1]; Rate 2 μM): −0.8 % vs control | Slope (% vs control) ([1]; Rate 10 μM): −13.4 % vs control | T50 (% vs control) ([1]; Rate 10 μM): −2.0 % vs control | Slope (% vs control) ([1]; Rate 50 μM): −19.7 % vs control | T50 (% vs control) ([1]; Rate 50 μM): −0.9 % vs control

CC1=C[C@H](O/C=C2/C(=O)O[C@@H]3Cc4ccccc4[C@H]23)N(c2cc(C(F)(F)F)cc(C(F)(F)F)c2)C1=O [II-1a]
Slope (% vs control) ([1]; Rate 10 μM): 18.70 % vs control | T50 (% vs control) ([1]; Rate 10 μM): −2.70 % vs control | Slope (% vs control) ([1]; Rate 50 μM): 68.50 % vs control | T50 (% vs control) ([1]; Rate 50 μM): −5.30 % vs control | Slope (% vs control) ([1]; Rate 250 μM): 37.00 % vs control | T50 (% vs control) ([1]; Rate 250 μM): −3.20 % vs control | Slope compared with closest prior art compound P2 ([1]; at equivalent rates): higher slope | T50 compared with closest prior art compound P2 ([1]; at equivalent rates): lower T50

CC1=C[C@@H](O/C=C2/C(=O)O[C@@H]3Cc4ccccc4[C@H]23)N(c2cc(C(F)(F)F)cc(C(F)(F)F)c2)C1=O [II-1b]
Slope (% vs control) ([1]; Rate 10 μM): 19.20 % vs control | T50 (% vs control) ([1]; Rate 10 μM): −2.50 % vs control | Slope (% vs control) ([1]; Rate 50 μM): 41.40 % vs control | T50 (% vs control) ([1]; Rate 50 μM): −5.10 % vs control | Slope (% vs control) ([1]; Rate 250 μM): 62.40 % vs control | T50 (% vs control) ([1]; Rate 250 μM): −5.90 % vs control | Slope compared with closest prior art compound P2 ([1]; at equivalent rates): higher slope | T50 compared with closest prior art compound P2 ([1]; at equivalent rates): lower T50

CC1=CC(O/C=C2/C(=O)NC3Cc4ccccc4C23)N(c2cc(C(F)(F)F)cc(C(F)(F)F)c2)C1=O (stereo not shown) [III-1, (1E)-[[1-[3,5-bis(trifluoromethyl)phenyl]-4-methyl-1-oxo-2H-pyrrol-2-yl]oxymethylene]-3,3a,4,8b-tetrahydroindeno[2,1-b]pyrrol-2-one]
Slope (% vs control) ([1]; Rate 0.4 μM): 7.3 % vs control | T50 (% vs control) ([1]; Rate 0.4 μM): −0.7 % vs control | Slope (% vs control) ([1]; Rate 2 μM): 14.3 % vs control | T50 (% vs control) ([1]; Rate 2 μM): 1.3 % vs control | Slope (% vs control) ([1]; Rate 10 μM): 82.6 % vs control | T50 (% vs control) ([1]; Rate 10 μM): −8.5 % vs control | Slope (% vs control) ([1]; Rate 50 μM): 175.6 % vs control | T50 (% vs control) ([1]; Rate 50 μM): −10.1 % vs control | Slope compared with closest prior art compound P1 ([1]; at equivalent rates, vs P1): higher slope | Slope (% vs control) ([2]; Rate 0.4 μM): −4 % vs control | T50 (% vs control) ([2]; Rate 0.4 μM): −0.5 % vs control | Slope (% vs control) ([2]; Rate 2 μM): 7.4 % vs control | T50 (% vs control) ([2]; Rate 2 μM): −1.2 % vs control | Slope (% vs control) ([2]; Rate 10 μM): 54.1 % vs control | T50 (% vs control) ([2]; Rate 10 μM): −9.3 % vs control | Slope (% vs control) ([2]; Rate 50 μM): 114.7 % vs control | T50 (% vs control) ([2]; Rate 50 μM): −6.1 % vs control | Slope (% vs control) ([3]; Rate 0.4 μM): 1.2 % vs control | T50 (% vs control) ([3]; Rate 0.4 μM): −0.5 % vs control | Slope (% vs control) ([3]; Rate 2 μM): −0.4 % vs control | T50 (% vs control) ([3]; Rate 2 μM): −0.2 % vs control | Slope (% vs control) ([3]; Rate 10 μM): 85.8 % vs control | T50 (% vs control) ([3]; Rate 10 μM): −11 % vs control | Slope (% vs control) ([3]; Rate 50 μM): 132.5 % vs control | T50 (% vs control) ([3]; Rate 50 μM): −15.9 % vs control | Slope compared with closest prior art compound P1 ([3]; at equivalent rates, vs P1): higher slope | T50 compared with closest prior art compound P1 ([3]; at equivalent rates, vs P1): lower T50 | Slope (% vs control) ([4]; Rate 0.4 μM): 1 % vs control | T50 (% vs control) ([4]; Rate 0.4 μM): 0.8 % vs control | Slope (% vs control) ([4]; Rate 2 μM): 3.9 % vs control | T50 (% vs control) ([4]; Rate 2 μM): −0.2 % vs control | Slope (% vs control) ([4]; Rate 10 μM): 7.6 % vs control | T50 (% vs control) ([4]; Rate 10 μM): −3.6 % vs control | Slope (% vs control) ([4]; Rate 50 μM): 23.8 % vs control | T50 (% vs control) ([4]; Rate 50 μM): −4.0 % vs control | Slope compared with closest prior art compound P1 ([4]; at equivalent rates, vs P1): higher slope | T50 compared with closest prior art compound P1 ([4]; at equivalent rates, vs P1): lower T50 | half-life [5, 6]: > 59 h | half-life [5, 7]: > 59 h | % remaining, less polar isomer ([5]; pH 9, at 17.6 hours, less polar isomer): 97.5% remaining at 17.6 hours | % remaining, more polar isomer ([5]; pH 9, at 17.6 hours, more polar isomer): 94.9% remaining at 17.6 hours | Hydrolytic stability compared with less polar isomer of P1 ([5]; pH 9, less polar isomer, vs P1): more stable
